In publication PMC11397063, “Subcutaneous Semaglutide during Breastfeeding: Infant Safety Regarding Drug Transfer into Human Milk” (Nutrients, 2024):

What was measured:
[1] = cited from earlier work
Excerpt: First, we will contextualize bioavailability in the RID by including these parameters in the RID calculation (RIDF). […] The oral bioavailability of semaglutide is low but unknown per a medical information request at Novo Nordisk (B. Shah, personal communication, 20 June 2024). As such, oral bioavailability will be overestimated using the available parameter for semaglutide formulated with the permeability enhancer, SNAC (F < 0.01), though SNAC will not be present in this scenario [32]. This overestimate will assist in co ... || However, rather than simply converting the weekly dose to an equivalent daily dose, the estimation of RID can be further extrapolated to estimate steady-state conditions over the full week by considering the plasma concentration-time profile of the […]. […] Overgaard et al. published population pharmacokinetic parameters of semaglutide. According to this publication, the disposition of semaglutide after subcutaneous administration follows a 2-compartment model with first-order absorption from the injection ...

[2] = test system: breastfed infants; settings: in vivo
Excerpt: This study utilized data collected from the InfantRisk Human Milk Biorepository (HMB) which has been approved on 22 February 2021 by the institutional ethics committee (A21-4214). The biorepository targets the collection of milk samples and self-related health information for mother and infant dyad via a questionnaire. […] Therefore, we prioritized collecting samples immediately before any dose changes, even if this occurred prior to reaching steady state concentrations, to maximize the informativeness of our analysis. Participants were asked to express milk samples after a minimum of three administrations of the same dose. Milk samples collected from 0, 12, and 24 h post-administration and their corresponding de-identified health questionnaires were released for 8 different individuals from the HMB for this study. If milk samples for multiple doses were provided, samples were only released from the biorepository for the highest dose collected closest to steady-state.

[3] = estimation of relative infant dose (RID, RIDF, RIDFP) from milk; type: in vivo, human; settings: milk concentration assumed = LLOQ 5.7 ng/mL
Excerpt: The maternal weight-adjusted infant dose, the relative infant dose (RID%), is often used to assess infant exposure to drugs through breastfeeding. This parameter is the percentage of an infant dose of drug via a full diet of human milk relative to the maternal dose (mg/kg) over the same period. An RID of […] is often considered a safety threshold in risk assessments. (1) RID (%)=100 × infant daily oral dose per kg from milk/maternal daily dose per kg
The fraction’s numerator is computed as the product of the measured drug concentration present in milk times estimated milk intake of 150 mL/kg/day.
The RID calculation was adjusted to include parameters for bioavailability and extended dosing intervals, which will improve the interpretation of RID in the setting of subcutaneous semaglutide injection.
First, we will contextualize bioavailability in the RID by including these parameters in the RID calculation (RIDF). […] The oral bioavailability of semaglutide is low but unknown per a medical information request at Novo Nordisk (B. Shah, personal communication, 20 June 2024). As such, oral bioavailability will be overestimated using the available parameter for semaglutide formulated with the permeability enhancer, SNAC (F < 0.01), though SNAC will not be present in this scenario [32]. […]

infant growth, all infants [2]: unremarkable
RIDF (%), maximum possible ([3]; Equation (2), mean maternal weight 93 kg, mean 0.56 mg/week SC, F(oral) 0.01, F(S.C.) 89%, weekly dose/7): <1.12%
maximum dose to the infant possible without detecting semaglutide in milk ([3]; infant milk intake 150 mL/kg/day): 855 ng/kg/day
SMILES: CC[C@H](C)[C@H](NC(=O)[C@H](Cc1ccccc1)NC(=O)[C@H](CCC(=O)O)NC(=O)[C@H](CCCCNC(=O)COCCOCCNC(=O)COCCOCCNC(=O)CC[C@H](NC(=O)CCCCCCCCCCCCCCCCC(=O)O)C(=O)O)NC(=O)[C@H](C)NC(=O)[C@H](C)NC(=O)[C@H](CCC(N)=O)NC(=O)CNC(=O)[C@H](CCC(=O)O)NC(=O)[C@H](CC(C)C)NC(=O)[C@H](Cc1ccc(O)cc1)NC(=O)[C@H](CO)NC(=O)[C@H](CO)NC(=O)[C@@H](NC(=O)[C@H](CC(=O)O)NC(=O)[C@H](CO)NC(=O)[C@@H](NC(=O)[C@H](Cc1ccccc1)NC(=O)[C@@H](NC(=O)CNC(=O)[C@H](CCC(=O)O)NC(=O)C(C)(C)NC(=O)[C@@H](N)Cc1cnc[nH]1)[C@@H](C)O)[C@@H](C)O)C(C)C)C(=O)N[C@@H](C)C(=O)N[C@@H](Cc1c[nH]c2ccccc12)C(=O)N[C@@H](CC(C)C)C(=O)N[C@H](C(=O)N[C@@H](CCCNC(=N)N)C(=O)NCC(=O)N[C@@H](CCCNC(=N)N)C(=O)NCC(=O)O)C(C)C [semaglutide]
oral bioavailability (F) ([1]; semaglutide formulated with the permeability enhancer SNAC, used as overestimate): < 0.01
subcutaneous bioavailability ([1]; subcutaneous): 89%
infant milestones, all infants [2]: meeting or surpassing expected milestones
